Holding throughout (type): biochemical
Test [1] addresses Bovine LOX (Bos taurus (Bovine), UniProt P33072). The experiment in a line: LOX inhibition, peroxidase-coupled Amplex Red amine oxidase assay. The following applies: 30 min preincubation at 37° C., putrescine substrate. An excerpt:
(§1) Method to Determine the Ability of Compounds of the Invention to Inhibit LOX and LOXL1-4 from Different Sources
Lysyl oxidase (LOX) is an extracellular copper dependent enzyme which oxidizes peptidyl lysine and hydroxylysine residues in collagen and lysine residues in elastin to produce peptidyl alpha-aminoadipic-delta-semialdehydes. […] There are five LOX family members; these are LOX, LOXL1, LOXL2, LOXL3 and LOXL4. LOX and LOXL family members can be acquired as recombinant active proteins from commercial sources, or extracted from animal tissues like bovine aorta, tendons, pig skin; or prepared from cell cultures. The inhibitory effects of the compounds of the present invention were tested against the given LOX-LOXL preparation using a high-throughput coupled colorimetric method (Holt A. and Palcic M., A peroxidase-coupled continuous absorbance plate-reader assay for flavin monoamine oxidases, copper-containing amine oxidases and related enzymes. Nat. Protoc. 2006; 1: 2498-2505). The assay was developed using either 384 or 96 well format. Briefly, in a standard 384 well plate assay 25 μL of a dilution of any of the isoenzymes and orthologues in 1.2 M urea, 50 mM sodium borate buffer (pH 8.2) were added into each well in the presence of 1 μM mofegiline and 0.5 mM pargyline (to inhibit SSAO and MAO-B and MAO-A, respectively). […] Twenty five μL of a reaction mixture containing twice the KM concentration of putrescine (Sigma Aldrich, e.g. 20 mM for LOX, or 10 mM for LOXL2 and LOXL3), 120 μM Amplex Red (Sigma Aldrich) and 1.5 U/mL horseradish peroxidase (Sigma Aldrich) prepared in 1.2 M urea, 50 mM sodium borate buffer (pH 8.2) were then added to the corresponding wells. The above volumes were doubled in the case of 96 wells plate. The fluorescence (RFU) was read every 2.5 min for 30 min at a range of temperatures from 37° to 45° C., excitation 565 nm and emission 590 (Optima; BMG labtech). The slope of the kinetics for each well was calculated using MARS data analysis software (BMG labtech) and this value was used to deduce the IC50 value (Dotmatics).

The target of test [2] is Human LOXL2 (Homo sapiens (Human), UniProt Q9Y4K0). The experiment in a line: LOXL2 inhibition, peroxidase-coupled Amplex Red amine oxidase assay. The following applies: 30 min preincubation at 37° C., putrescine substrate.
Excerpt: as §1
Lysyl oxidase (LOX) is an extracellular copper dependent enzyme which oxidizes peptidyl lysine and hydroxylysine residues in collagen and lysine residues in elastin to produce peptidyl alpha-aminoadipic-delta-semialdehydes. […] There are five LOX family members; these are LOX, LOXL1, LOXL2, LOXL3 and LOXL4. LOX and LOXL family members can be acquired as recombinant active proteins from commercial sources, or extracted from animal tissues like bovine aorta, tendons, pig skin; or prepared from cell cultures. The inhibitory effects of the compounds of the present invention were tested against the given LOX-LOXL preparation using a high-throughput coupled colorimetric method (Holt A. and Palcic M., A peroxidase-coupled continuous absorbance plate-reader assay for flavin monoamine oxidases, copper-containing amine oxidases and related enzymes. Nat. Protoc. 2006; 1: 2498-2505). The assay was developed using either 384 or 96 well format. Briefly, in a standard 384 well plate assay 25 μL of a dilution of any of the isoenzymes and orthologues in 1.2 M urea, 50 mM sodium borate buffer (pH 8.2) were added into each well in the presence of 1 μM mofegiline and 0.5 mM pargyline (to inhibit SSAO and MAO-B and MAO-A, respectively). Test compounds were dissolved in DMSO and tested in a Concentration Response Curve (CRC) with 11 data points, typically in the micromolar or nanomolar range after incubation with the enzyme for 30 min at 37° C. Twenty five μL of a reaction mixture containing twice the KM concentration of putrescine (Sigma Aldrich, e.g. 20 mM for LOX, or 10 mM for LOXL2 and LOXL3), 120 μM Amplex Red (Sigma Aldrich) and 1.5 U/mL horseradish peroxidase (Sigma Aldrich) prepared in 1.2 M urea, 50 mM sodium borate buffer (pH 8.2) were then added to the corresponding wells. The above volumes were doubled in the case of 96 wells plate. The fluorescence (RFU) was read every 2.5 min for 30 min at a range of temperatures from 37° to 45° C., excitation 565 nm and emission 590 (Optima; BMG labtech). The slope of the kinetics for each well was calculated using MARS data analysis software (BMG labtech) and this value was used to deduce the IC50 value (Dotmatics).

Test [3] deals with Human recombinant SSAO/VAP-1 (Homo sapiens (Human), UniProt Q16853). Put plainly: Human recombinant SSAO/VAP-1 amine oxidase inhibition. The following applies: 30 min preincubation at 37° C., 600 μM benzylamine. On the procedure: Method to Determine the Ability of Compounds of Formula I to Inhibit Human Recombinant SSAO/VAP-1
Human recombinant SSAO/VAP-1 amine oxidase activity was determined using the coupled colorimetric method as described for monoamine oxidase, copper-containing amine oxidases and related enzymes (Holt A. and Palcic M., A peroxidase-coupled continuous absorbance plate-reader assay for flavin monoamine oxidases, copper-containing amine oxidases and related enzymes. Nat Protoc 2006; 1: 2498-2505). Briefly, a cloned cDNA template corresponding to residues 34-763 of human SSAO/VAP-1, and incorporating a mouse Ig kappa (κ) signal sequence, N-terminal flag epitope tag and tobacco etch virus (TEV) cleavage site, was assembled in a mammalian expression vector (pLO-CMV) by Geneart AG. This vector containing human SSAO/VAP-1 residues was transfected into CHO-K1 glycosylation mutant cell line, Lec 8. A clone stably expressing human SSAO/VAP-1 was isolated and cultured in large scale. Active human SSAO/VAP-1 was purified and recovered using immunoaffinity chromatography. This was used as the source for SSAO/VAP-1 activity. A high-throughput colorimetric assay was developed using either 96 or 384 well format. Briefly, in a standard 96 well plate assay 50 μL of purified human SSAO/VAP-1 (0.25 μg/mL) in 0.1 M sodium phosphate buffer (pH 7.4) was added into each well. Test compounds were dissolved in DMSO and tested in a Concentration Response Curve (CRC) with 4-11 data points, typically in the micromolar or nanomolar range after incubation with human SSAO/VAP-1 for 30 min at 37° C. After 30 min incubation, 50 μL of the reaction mixture containing 600 μM benzylamine (Sigma Aldrich), 120 μM Amplex Red (Sigma Aldrich) and 1.5 U/mL horseradish peroxidase (Sigma Aldrich) prepared in 0.1 M sodium phosphate buffer (pH 7.4) were added to the corresponding well. The fluorescence unit (RFU) was read every 2.5 min for 30 min at 37° C. excitation 565 nm and emission 590 (Optima; BMG labtech). The slope of the kinetics for each well was calculated using MARS data analysis software (BMG labtech) and this value was used to deduce the IC50 value (Dotmatics).

Test [4] has as its target Recombinant human MAO-B (Homo sapiens (Human), UniProt P27338). The experiment in a line: Human recombinant MAO-B inhibition. The following applies: benzylamine 100 μM. Here is the method:
Method to Determine the Ability of Compounds of Formula I to Inhibit Human Recombinant MAO-B
The specificity of the compounds of this invention was tested by determining their ability to inhibit MAO-B activities in vitro. Recombinant human MAO-B (0.06 mg/mL; Sigma Aldrich) was used as source of MAO-B enzyme activities. The assay was performed in a similar way as for human SSAO/VAP-1 (Example 36) except, the substrate benzylamine was used at 100 μM.

Where a name gives a salt, the structure may show the parent alone.

The IC50 is the concentration that inhibits the measured activity by half.

Human LOXL2, sequence (Q9Y4K0 26-774): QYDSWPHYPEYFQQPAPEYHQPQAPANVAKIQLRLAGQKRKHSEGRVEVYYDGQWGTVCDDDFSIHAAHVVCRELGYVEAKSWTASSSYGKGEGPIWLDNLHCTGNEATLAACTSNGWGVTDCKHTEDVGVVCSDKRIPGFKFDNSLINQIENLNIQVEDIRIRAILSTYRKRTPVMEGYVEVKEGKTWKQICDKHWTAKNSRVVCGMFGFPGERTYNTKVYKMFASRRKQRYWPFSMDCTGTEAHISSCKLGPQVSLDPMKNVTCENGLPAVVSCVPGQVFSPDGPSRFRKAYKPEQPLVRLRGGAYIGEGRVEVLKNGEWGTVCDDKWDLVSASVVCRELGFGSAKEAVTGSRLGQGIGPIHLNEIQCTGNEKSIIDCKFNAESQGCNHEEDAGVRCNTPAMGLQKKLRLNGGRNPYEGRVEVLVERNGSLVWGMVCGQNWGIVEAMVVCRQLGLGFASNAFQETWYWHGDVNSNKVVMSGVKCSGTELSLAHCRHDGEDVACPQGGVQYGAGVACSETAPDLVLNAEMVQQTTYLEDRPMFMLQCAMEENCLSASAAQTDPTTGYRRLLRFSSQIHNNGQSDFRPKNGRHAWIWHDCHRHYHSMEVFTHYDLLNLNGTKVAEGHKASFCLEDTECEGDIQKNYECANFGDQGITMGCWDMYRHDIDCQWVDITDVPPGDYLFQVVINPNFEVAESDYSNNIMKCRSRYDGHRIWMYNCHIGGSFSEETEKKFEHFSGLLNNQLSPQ
Recombinant human MAO-B, sequence (P27338 whole entry): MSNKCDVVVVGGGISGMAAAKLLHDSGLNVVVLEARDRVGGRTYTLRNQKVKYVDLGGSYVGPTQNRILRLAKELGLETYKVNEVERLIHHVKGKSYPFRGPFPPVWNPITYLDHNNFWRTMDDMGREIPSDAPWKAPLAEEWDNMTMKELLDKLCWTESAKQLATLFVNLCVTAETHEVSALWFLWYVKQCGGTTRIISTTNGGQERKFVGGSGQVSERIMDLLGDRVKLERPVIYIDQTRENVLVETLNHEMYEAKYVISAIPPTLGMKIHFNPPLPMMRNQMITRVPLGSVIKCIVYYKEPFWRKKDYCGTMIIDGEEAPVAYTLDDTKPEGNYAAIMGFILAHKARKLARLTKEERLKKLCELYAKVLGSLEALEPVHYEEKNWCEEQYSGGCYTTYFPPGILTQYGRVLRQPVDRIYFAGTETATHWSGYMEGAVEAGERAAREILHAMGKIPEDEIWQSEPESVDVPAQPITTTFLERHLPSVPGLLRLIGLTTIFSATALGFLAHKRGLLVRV
Bovine LOX, sequence (P33072 170-418): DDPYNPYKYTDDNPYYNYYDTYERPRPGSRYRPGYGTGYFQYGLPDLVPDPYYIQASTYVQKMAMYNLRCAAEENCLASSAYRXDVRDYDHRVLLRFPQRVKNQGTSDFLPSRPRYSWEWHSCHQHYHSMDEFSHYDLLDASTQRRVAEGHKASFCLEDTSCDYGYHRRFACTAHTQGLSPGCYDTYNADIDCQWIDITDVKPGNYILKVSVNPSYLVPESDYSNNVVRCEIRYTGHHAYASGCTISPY
Human recombinant SSAO/VAP-1, sequence (Q16853 34-763): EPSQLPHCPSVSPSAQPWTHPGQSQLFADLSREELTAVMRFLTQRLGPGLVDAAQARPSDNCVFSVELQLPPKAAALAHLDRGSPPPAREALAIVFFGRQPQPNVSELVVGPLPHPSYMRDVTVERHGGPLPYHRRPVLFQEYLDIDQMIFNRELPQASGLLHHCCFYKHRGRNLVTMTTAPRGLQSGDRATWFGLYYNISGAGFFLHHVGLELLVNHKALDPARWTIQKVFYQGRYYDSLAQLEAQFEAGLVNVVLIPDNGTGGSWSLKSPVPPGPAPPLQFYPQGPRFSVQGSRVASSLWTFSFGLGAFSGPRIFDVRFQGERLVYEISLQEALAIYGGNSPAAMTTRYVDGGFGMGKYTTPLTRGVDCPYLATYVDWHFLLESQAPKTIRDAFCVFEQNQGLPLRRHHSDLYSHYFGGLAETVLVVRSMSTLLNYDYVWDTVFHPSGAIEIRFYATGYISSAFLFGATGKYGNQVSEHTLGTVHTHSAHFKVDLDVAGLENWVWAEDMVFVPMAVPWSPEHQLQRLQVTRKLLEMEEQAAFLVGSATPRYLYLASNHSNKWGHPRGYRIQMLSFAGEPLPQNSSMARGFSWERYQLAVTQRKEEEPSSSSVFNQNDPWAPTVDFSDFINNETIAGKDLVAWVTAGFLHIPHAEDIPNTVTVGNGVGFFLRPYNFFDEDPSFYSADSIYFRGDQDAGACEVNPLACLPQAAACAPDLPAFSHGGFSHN

In the case of `Cc1c(Cc2ccc(S(=O)(=O)N(C)C)cc2)c2cc(C(=O)O)ccc2n1C/C(F)=C/CN` [Compound 1, (Z)-1-(4-amino-2-fluorobut-2-en-1-yl)-3-(4-(N,N-dimethylsulfamoyl)benzyl)-2-methyl-1H-indole-5-carboxylic acid hydrochloride], the IC50 is greater than 0.3 µM in test [1], less than 0.3 µM in test [2], greater than 3 µM in test [3] and greater than 3 µM in test [4].

For `COC(=O)c1ccc2c(c1)c(Cc1ccc(S(=O)(=O)N(C)C)cc1)c(C)n2C/C(F)=C/CN` [Compound 2, Methyl (Z)-1-(4-amino-2-fluorobut-2-en-1-yl)-3-(4-(N,N-dimethylsulfamoyl)benzyl)-2-methyl-1H-indole-5-carboxylate hydrochloride], the IC50 in test [1] was greater than 0.3 µM; in test [2], less than 0.3 µM; in test [3] it was greater than 3 µM; in test [4], greater than 3 µM.

For `Cc1c(Cc2ccc(S(=O)(=O)N(C)C)cc2)c2cc(C(=O)N(C)C)ccc2n1C/C(F)=C/CN` [Compound 3, (Z)-1-(4-amino-2-fluorobut-2-en-1-yl)-3-(4-(N,N-dimethylsulfamoyl)benzyl)-N,N,2-trimethyl-1H-indole-5-carboxamide hydrochloride], the IC50 in test [1] was greater than 0.3 µM; in test [2], less than 0.3 µM; in test [3] it was greater than 3 µM; in test [4], greater than 3 µM.

`Cc1c(Cc2ccc(S(=O)(=O)N(C)C)cc2)c2cc(C(N)=O)ccc2n1C/C(F)=C/CN` [Compound 4, (Z)-1-(4-amino-2-fluorobut-2-en-1-yl)-3-(4-(N,N-dimethylsulfamoyl)benzyl)-2-methyl-1H-indole-5-carboxamide hydrochloride]: the IC50 was greater than 0.3 µM in test [1], less than 0.3 µM in test [2], greater than 3 µM in test [3] and greater than 3 µM in test [4].

`CN(C)C(=O)c1c(Cc2ccc(S(=O)(=O)N(C)C)cc2)c2ccccc2n1C/C(F)=C/CN` [Compound 5, (Z)-1-(4-amino-2-fluorobut-2-en-1-yl)-3-(4-(N,N-dimethylsulfamoyl)benzyl)-N,N-dimethyl-1H-indole-2-carboxamide hydrochloride]: the IC50 in test [1] is greater than 0.3 µM; in test [2], less than 0.3 µM; in test [3] it was greater than 3 µM; in test [4], greater than 3 µM.

For the compound `Cc1c(Cc2ccc(S(=O)(=O)N(C)C)cc2)c2cc(S(=O)(=O)N(C)C)ccc2n1C/C(F)=C/CN` [Compound 6, (Z)-1-(4-amino-2-fluorobut-2-en-1-yl)-3-(4-(N,N-dimethylsulfamoyl)benzyl)-N,N,2-trimethyl-1H-indole-5-sulfonamide hydrochloride], the IC50 was greater than 0.3 µM in test [1], less than 0.3 µM in test [2], greater than 3 µM in test [3] and greater than 3 µM in test [4].

Turning to `Cc1c(Cc2cccc(S(=O)(=O)N(C)C)c2)c2cc(S(=O)(=O)N(C)C)ccc2n1C/C(F)=C/CN` [Compound 7, (Z)-1-(4-amino-2-fluorobut-2-en-1-yl)-3-(3-(N,N-dimethylsulfamoyl)benzyl)-N,N,2-trimethyl-1H-indole-5-sulfonamide hydrochloride], the IC50 in test [1] was greater than 0.3 µM; in test [2], less than 0.3 µM; in test [3], greater than 3 µM; in test [4] it was greater than 3 µM.

`Cc1c(Cc2ccc(S(=O)(=O)N(C)C)cc2)c2ncccc2n1C/C(F)=C/CN` [Compound 8, (Z)-4-((1-(4-amino-2-fluorobut-2-en-1-yl)-2-methyl-1H-pyrrolo[3,2-b]pyridin-3-yl)methyl)-N,N-dimethylbenzenesulfonamide dihydrochloride]: the IC50 is greater than 0.3 µM in test [1], less than 0.3 µM in test [2], greater than 3 µM in test [3] and greater than 3 µM in test [4].

For `Cc1ccc2c(n1)c(Cc1ccc(S(=O)(=O)N(C)C)cc1)c(C)n2C/C(F)=C/CN` [Compound 9, (Z)-4-((1-(4-amino-2-fluorobut-2-en-1-yl)-2,5-dimethyl-1H-pyrrolo[3,2-b]pyridin-3-yl)methyl)-N,N-dimethylbenzenesulfonamide dihydrochloride], the IC50 in test [1] is greater than 0.3 µM; in test [2] it was less than 0.3 µM; in test [3] it was greater than 3 µM; in test [4] it was greater than 3 µM.

`Cc1c(Cc2ccc(S(C)(=O)=O)cc2)c2ncccc2n1C/C(F)=C/CN` [Compound 10, (Z)-3-fluoro-4-(2-methyl-3-(4-(methylsulfonyl)benzyl)-1H-pyrrolo[3,2-b]pyridin-1-yl)but-2-en-1-amine dihydrochloride]: the IC50 in test [1] was greater than 0.3 µM; in test [2] it was less than 0.3 µM; in test [3], greater than 3 µM; in test [4], greater than 3 µM.

In the case of `CCS(=O)(=O)c1ccc(Cc2c(C(C)C)n(C/C(F)=C/CN)c3cccnc23)cn1` [Compound 43, (Z)-4-(3-((6-(ethylsulfonyl)pyridin-3-yl)methyl)-2-isopropyl-1H-pyrrolo[3,2-b]pyridin-1-yl)-3-fluorobut-2-en-1-amine dihydrochloride], the IC50 in test [1] is greater than 0.3 µM; in test [2] it was less than 0.3 µM.

For `CC(C)c1c(Cc2ccc(S(=O)(=O)C3CC3)nc2)c2ncccc2n1C/C(F)=C/CN` [Compound 44, (Z)-4-(3-((6-(cyclopropylsulfonyl)pyridin-3-yl)methyl)-2-isopropyl-1H-pyrrolo[3,2-b]pyridin-1-yl)-3-fluorobut-2-en-1-amine dihydrochloride], the IC50 is greater than 0.3 µM in test [1] and less than 0.3 µM in test [2].

For the origin of these results see patent publication US10717734B2, “Indole and azaindole haloallylamine derivative inhibitors of lysyl oxidases and uses thereof” (PHARMAXIS LTD., priority 2016, dated 2020).
